Assay results published in patent publication EP4414363A1, “INDOLYLACETIC DERIVATIVES FOR USE IN THE TREATMENT OF NEURODEGENERATIVE DISEASES” (Miuli Pharma S.r.l., priority 2023, dated 2024).

Assays:
iNOS = experiment: Western blot of LPS-induced iNOS expression in microglia cells; type: cell-based, murine; conditions: BV2 microglial cells, LPS 100 ng/mL, compound 100nM, 24h
Procedure: (§1) Human neuroblastoma SH-SY5Y cells (Cell bank Line Collection ICLC) and immortalized murine microglial BV-2 cell line were grown as monolayers in polystyrene dishes (12 or 6 wells plate) in Dulbecco's modified Eagle's medium (DMEM) with 10% (v/v) fetal bovine serum (FBS), L glutamine (2 mM), 1% penicillin (50 IU/ml) and streptomycin (50 µg/ml). Cells were grown in a humidified atmosphere containing 95% air and 5% CO2, and the medium was changed every two days. All experiments were conducted in cultures containing cells between the 4th and 8th passages.
(§2) SH-SY5Y and BV-2 cells were plated with a confluence of 65.000 cell/mL. After 24 hours of cell seeding, medium was changed for 6h starvation in a medium containing 0% FBS. […]
(§3) Cells were exposed to compounds or vehicle and, after 24 hours, have been analyzed for Western Blotting experiments or MTT assay.
(§4) Western blot analysis was performed as previously described. Protein samples (50 µg) were analyzed on 8% subjected to SDS-polyacrylamide gel electrophoresis (SDS-PAGE) and electrotransferred onto Hybond ECL nitrocellulose paper (Amersham, Milan, Italy). […]
(§5) Immunoreactive bands were detected using ECL (Amersham). The optical density of the bands (normalized for β-actin) was determined by Chemi-Doc Imaging System (Bio-Rad, Segrate, Italy).

[1] = from reference [15]; cited from earlier work
COX2 = experiment: Western blot of COX2 expression in LPS-exposed microglia cells; type: cell-based, murine; conditions: BV2 microglial cells, LPS 100 ng/mL, compound 100nM, 24h
Procedure: as §1, §2, §3, §4, §5

[2] = Body weight during prolonged treatment; type: in vivo, mice
Source text: (§6) B6SJL-TgN SOD1/G93A(+)1Gur mice expressing high copy number of mutant human SOD1 with a Gly93Ala substitution [SOD1^G93A] and B6SJL-TgN (SOD1)2Gur mice expressing wild-type human SOD1 (WT) were obtained from Jackson Laboratories (Bar Harbor, ME, USA). Transgenic animals have been crossed with background-matched B6SJL wild-type female and selective breeding maintained each transgene in the […] state. All transgenic mice were identified analyzing extracts from tail tips by staining for SOD1 as previously described.
(§7) Overall, 24 male and female mice housed under diurnal lighting conditions (12 h darkness/light) were used. The number of female and male mice was balanced among all the experimental groups.
(§8) The newly synthesized compound III, dissolved in distilled water, was intraperitoneally administered daily at a dose of […], beginning at 2 months of age until 4,5 months of age.
(§9) Motor coordination and balance was assessed using a five-station mouse rotarod apparatus (Ugo Basile; Milan, Italy) as previously described. In each station, the rod was 6 cm in length and 3 cm in diameter. […] Mice had three trials on the rod, and the latencies to fall were measured once a week and then averaged. […] Body weight was measured immediately before each session of behavioral tests. […]

SOD1^G93A mice [3] = experiment: Survival of ALS mice under prolonged treatment; type: in vivo; conditions: daily i.p. from 2 months of age, dose group not stated, vehicle 127.9 ± 1.65 days
Source text: as §6, §7, §8
Disease end stage was defined by the inability of mice to right themselves within 20 s when placed on their sides.
Data were evaluated as means ± SEM. Statistically significant differences among means were determined by one-way ANOVA followed by Student-Newman-Keuls/Bonferroni post-hoc test for western blotting, and Behavioral test. The Kaplan-Meier plot was used to evaluate survival, grip, rotarod and paralysis onset. Student's t-test was used for two groups comparison. […]

SOD1^G93A mice [4] = experiment: Hind limb grip test; type: in vivo
Source text: as §6, §7, §8
Hind limb grip test was carried out by placing the mouse on a grid (45 cm long × 28 cm large) upside-down (30 cm above a foam pad). The test was performed once a week and the latency to fall off the grid was also measured up to a maximum of 60 s.
To investigate whether the reduced neuroinflammatory response observed in vitro through the effect on TNF-α expression was accompanied by an amelioration of the motor performance of these mice, behavioral tests were weekly performed on WT and SOD1^G93A mice, starting from the second month after birth (P60), when i.p. administration of compound III started and when the mice were asymptomatic. All animals were assigned to three experimental groups: SOD1^G93A+vehicle, SOD1 ^G93A +compound III at 1 mg/kg, and SOD1 ^G93A +compound III at 10 mg/kg, and then weighed, subjected to rotarod test, grip test and observed to detect the disease onset.

SOD1^G93A mice [5] = experiment: Paralysis onset in ALS mice; type: in vivo; conditions: daily i.p., dose group not stated, vehicle 33.69 ± 1.31 days
Source text: as §6, §7, §8, §9

SOD1^G93A mice [6] = experiment: Rotarod test (motor coordination and balance); type: in vivo
Source text: as §6, §7, §8
Motor coordination and balance was assessed using a five-station mouse rotarod apparatus (Ugo Basile; Milan, Italy) as previously described. In each station, the rod was 6 cm in length and 3 cm in diameter. Mice were trained to maintain balance at increasing speed up to a constant speed of 14 rpm for three consecutive trials. The test sessions were conducted by one rotarod trial administered once a week. In this session, the speed of rotation was increased from 4 to 14 rpm over 60 s. Mice had three trials on the rod, and the latencies to fall were measured once a week and then averaged. […] Weekly evaluation of hind limb paralysis was performed. […] Body weight was measured immediately before each session of behavioral tests.
To investigate whether the reduced neuroinflammatory response observed in vitro through the effect on TNF-α expression was accompanied by an amelioration of the motor performance of these mice, behavioral tests were weekly performed on WT and SOD1^G93A mice, starting from the second month after birth (P60), when i.p. administration of compound III started and when the mice were asymptomatic. […]

TNF-α = experiment: Western blot of LPS-induced TNF-α expression in microglia cells; type: cell-based, murine; conditions: BV2 microglial cells, LPS 100 ng/mL, compound 100nM, 24h
Procedure: as §1, §2, §3, §4, §5

Structure (SMILES) | iNOS induction elicited by LPS (iNOS) | gastric damage evaluated as the lengths of the lesions [1] | COX2 expression (COX2) | body weight ([2]; SOD1^G93A mice treated for 8 weeks, vehicle group 10% reduction at 7 weeks) | body weight ([2]; WT mice, compound versus vehicle) | average lifespan (SOD1^G93A mice [3]) | onset of grip performance loss (50% of the animals started to lose their grip) (SOD1^G93A mice [4]; G93A mice, day after treatment, vehicle around the 35th day) | grip performance (latency to fall off the grid) (SOD1^G93A mice [4]; SOD1^G93A mice, at 6 weeks of treatment, vehicle 28.8 ± 4 sec, maximum 60 s) | grip performance (time remained on the grid) (SOD1^G93A mice [4]; SOD1^G93A mice, at 8 weeks of treatment) | paralysis onset (SOD1^G93A mice [5]) | rotarod: time able to balance on the rotarod (SOD1^G93A mice [6]; SOD1^G93A mice, at 8 weeks of treatment, vehicle 3.7±1 sec, maximum 60 s) | rotarod onset (50% of the animals started to fall off the rotarod) (SOD1^G93A mice [6]; SOD1^G93A mice, day of treatment, vehicle around the 30th day) | rotarod performance (SOD1^G93A mice [6]; wild type mice) | overexpression of TNF-α induced by LPS exposure (TNF-α)
COc1ccc2c(c1)c(CC(=O)O)c(C)n2C1CCN(C)CC1 [Compound II, 2-(5-methoxy-2-methyl-1-(1-methylpiperidin-4-yl)-1H-indol-3-yl)acetic acid] | prevent iNOS induction | 0 mm |  |  |  |  |  |  |  |  |  |  |  | 
CCOC(=O)Cc1c(C)n(C2CCN(C)CC2)c2ccc(OC)cc12 [Compound III, Ethyl 2-(5-methoxy-2-methyl-1-(1-methylpiperidin-4-yl)-1H-indol-3-yl)acetate] |  | 3 ± 0.6 mm | not COX2 | remained stable over time | No differences were observed | 146.2 ± 3 days | ~45 days | 43.8 ± 4 s | 20 s | 42.47 ± 1.59 days | 21.4 ± 5 s | ~45 days | did not disrupt this performance | prevent the overexpression of TNF-α
COc1ccc2c(c1)c(CC(=O)O)c(C)n2C(=O)c1ccc(Cl)cc1 [indomethacin, reference compound] |  | 50 ± 8 mm |  |  |  |  |  |  |  |  |  |  |  | 
